From patent US8536192B2, “6,7-unsaturated-7-carbamoyl substituted morphinan derivative” (priority 2005, dated 2013)
Read-outs that look alike come from different tables or passages of the source.

How the values were obtained:
[1] = system: carbon powder transport of inhibitory activity by morphine; assay: Mouse carbon powder transport assay (antagonism of morphine-inhibited small intestine transport); assay type: in vivo; conditions: sc, 1 h, test compound 3 mg/kg subcutaneously, 15 minutes before morphine 3 mg/kg
Protocol: 1) Preparation of Test Diet (Carbon Powder)
Using a 10 w/v % arabic gum aqueous solution, a 5 w/v % active carbon solution was prepared, which was used as a test diet.
A ddY line male mouse (5 to 6 weeks old) was used. The mouse was fasted from about 20 or more hours before assay initiation, and water was given ad lib.
The test compound was dissolved in a solvent (DMAA/Solutol/5% meglumine=15/15/70).
Morphine hydrochloride was dissolved in a physiological saline. The test compound, the above solvent and morphine were all administered at a liquid amount of 10 mL/kg.
The test compound 3 mg/kg (test compound administration group) or the solvent (solvent administration group) were subcutaneously administered and, after 15 minutes, amount of 3 mg/kg of morphine was administered to all groups. As a control group, the solvent was subcutaneously administered and, after 15 minutes, a physiological saline was administered.
The test diet 10 mL/kg was orally administered at 15 minutes after administration of morphine. At thirty minutes after administration of the test diet (60 minutes after administration of the test substance), all mice were isolated from esophagus to an ileocecal part near a stomach cardia part. A distance from pyloric part of the stomach to an ileocecal part (full length of small intestine) and a distance until a carbon powder reaching front part (carbon powder movement distance) were measured. The antagonistic activity on the carbon powder transport of inhibitory activity by morphine was calculated as MPE (%) using the following equation. Transport rate (%)=(carbon powder movement distance)/full length of small intestine (cm))×100 M.P.E. (%)={(small intestine transport rate (%) of each individual of test compound administration group−average small intestine transport rate (%) of solvent administration group)/(average small intestine transport rate (%) of control group−average small intestine transport rate (%) of solvent administration group)}×100

opioid δ receptor = opioid δ receptor (Rattus norvegicus (Rat), UniProt P33533); assay: Binding assay of opioid δ receptor ([3H]-DADLE, rat cerebrum membrane)
Protocol: (§1) 1) Method of Preparing Membrane Specimen for Binding Assay
(§2) A rat cerebrum (Slc: SD) which had been stored at −80° C. was used. To a cerebrum which had been weighed was added a 20-fold amount of ice-cooled 10 mM Tris-HCl buffer (pH 7.0), and the mixture was homogenized (25000 rpm, 30 seconds) with Histocolon (NITI-ON), and centrifuged at 36600×g for 20 minutes. To the resulting pellet was added 15 ml of the same buffer, and the mixture was treated with Histocolon similarly, and centrifuged. This washing work was performed two times. After centrifugation, to the resulting pellet was added 15 mL of a 50 mM Tris-HCl buffer (pH 7.4), and this was treated with Histocolon, and finally resuspended in a 10-fold amount of the same buffer, which was used as a crude membrane fraction (Life Sci. 48, 111-116, 1991). The prepared membrane specimen was frozen and stored at −80° C., and at an assay, the specimen was rapidly thawed, and diluted to about 900 μg/mL with a 50 mM Tris-HCl buffer (pH 7.4) after the centrifugation and Histocolon treatment, and was used in an experiment. For measuring a protein concentration of the membrane specimen, Micro BCA Protein Assay Kit (PIERCE) was used.
2) Method of δ Receptor Binding Assay and Data Analysis
Into a tube was placed 480 μl of a rat cerebrum membrane fraction to which 100 mM choline chloride, 3 mM MnCl2 and 100 nM DAMGO had been added, and this was incubated at 25° C. for 2 hours. […] After washing, the filter was transferred to a mini vial for liquid scintillation counter, 5 mL of a scintillator (Cleasol I) was added, this was allowed to stand overnight, and the radioactivity was measured for 3 minutes with a liquid scintillation counter Tri-Carb 2200CA (PACKARD).

opioid μ receptor = opioid μ receptor (Rattus norvegicus (Rat), UniProt P33535); assay: Binding assay to opioid μ receptor ([3H]-DAMGO, rat cerebrum membrane)
Protocol: as §1
as §2, with “(pH 7.0), the mixture” for “(pH 7.0), and the mixture”, “(pH 7.4), this was” for “(pH 7.4), and this was”, “Histocolon, and this was finally resuspended” for “Histocolon, and finally resuspended”, “and at a test, the specimen” for “and at an assay, the specimen”
2) Method of μ Receptor Binding Assay and Data Analysis
After washing, the filter was transferred to a mini vial for liquid scintillation counter, 5 mL of a scintillator (Cleasol I) was added, and this was allowed to stand overnight, and the radioactivity was measured for 3 minutes with a liquid scintillation counter Tri-Carb 2200CA (PACKARD).

[2] = [3H]-DADLE, rat cerebrum membrane fraction, read-out: Ki
[3] = [3H]-DAMGO, rat cerebrum membrane fraction, read-out: Ki

| SMILES | percent antagonism of morphine-inhibited transport (M.P.E.) at 3 mg/kg [1] [%] | Ki (opioid δ receptor) [nM] | further results |
| --- | --- | --- | --- |
| CC(C)NC(=O)C1=C(NS(=O)(=O)c2ccc(Cl)cc2)[C@@H]2Oc3c(O)ccc4c3[C@@]23CCN(CC2CC2)[C@H](C4)[C@]3(O)C1 [Compound I-244] | 71.6 |  |  |
| COC(=O)C1(NC(=O)C2=C(O)[C@@H]3Oc4c(O)ccc5c4[C@@]34CCN(CC3CC3)[C@H](C5)[C@]4(O)C2)CCCC1 [Compound I-133] | 107 |  | Ki (opioid δ receptor; [2]): 9.85 nM; Ki (opioid μ receptor; [3]): 4.99 nM |
| O=C(NS(=O)(=O)c1cccc(Cl)c1)C1=C(O)[C@@H]2Oc3c(O)ccc4c3[C@@]23CCN(CC2CC2)[C@H](C4)[C@]3(O)C1 [Compound I-122] | 31.5 |  | Ki (opioid μ receptor; [3]): 2.7 nM |
| COc1cc(NC(=O)C2=C(O)[C@@H]3Oc4c(O)ccc5c4[C@@]34CCN(CC3CC3)[C@H](C5)[C@]4(O)C2)ncn1 [Compound I-243] | 52.6 | 5.2 | Ki (opioid μ receptor): 5.28 nM |
| COC(=O)C1(NC(=O)C2=C(O)[C@@H]3Oc4c(O)ccc5c4[C@@]34CCN(CC3CC3)[C@H](C5)[C@]4(O)C2)CC1 [Compound I-135] | 59.7 |  | Ki (opioid δ receptor; read-out: Ki): 9.76 nM; Ki (opioid μ receptor; read-out: Ki): 1.58 nM |
| O=C(N[C@H]1CCOC1=O)C1=C(O)[C@@H]2Oc3c(O)ccc4c3[C@@]23CCN(CC2CC2)[C@H](C4)[C@]3(O)C1 [Compound I-145] | 60.2 |  | Ki (opioid δ receptor; [2]): 13.9 nM; Ki (opioid μ receptor; [3]): 28.1 nM |
| O=C(NS(=O)(=O)c1ccc(F)cc1)C1=C(O)[C@@H]2Oc3c(O)ccc4c3[C@@]23CCN(CC2CC2)[C@H](C4)[C@]3(O)C1 [Compound I-124] | 46.6 |  | Ki (opioid μ receptor; read-out: Ki): 3.9 nM |
| O=C(Nc1ccc([N+](=O)[O-])cn1)C1=C(O)[C@@H]2Oc3c(O)ccc4c3[C@@]23CCN(CC2CC2)[C@H](C4)[C@]3(O)C1 [Compound I-208] | 81.2 | 13.3 | Ki (opioid μ receptor): 5.89 nM |
| O=C(C1=C(O)[C@@H]2Oc3c(O)ccc4c3[C@@]23CCN(CC2CC2)[C@H](C4)[C@]3(O)C1)N1CCCC1 [Compound I-7] |  | 7.4 |  |
| CN(Cc1ccccc1)C(=O)C1=C(O)[C@@H]2Oc3c(O)ccc4c3[C@@]23CCN(CC2CC2)[C@H](C4)[C@]3(O)C1 [Compound I-13] |  | 5.02 |  |
| CC(C)NC(=O)C1=C(O)[C@@H]2Oc3c(O)ccc4c3[C@@]23CCN(CC2CC2)[C@H](C4)[C@]3(O)C1 [Compound I-4, 7-Isopropylaminocarbonylnaltrexone] |  | 7.38 | Ki (opioid μ receptor): 5.18 nM |
| O=C(NCCOc1ccccc1)C1=C(O)[C@@H]2Oc3c(O)ccc4c3[C@@]23CCN(CC2CC2)[C@H](C4)[C@]3(O)C1 [Compound I-30] |  | 5.34 |  |
| COc1ccc(NC(=O)C2=C(O)[C@@H]3Oc4c(O)ccc5c4[C@@]34CCN(CC3CC3)[C@H](C5)[C@]4(O)C2)cn1 [Compound I-118] | 55.6 |  |  |
| COc1ccc(S(=O)(=O)NC(=O)C2=C(O)[C@@H]3Oc4c(O)ccc5c4[C@@]34CCN(CC3CC3)[C@H](C5)[C@]4(O)C2)cc1 [Compound I-123] | 44.1 |  | Ki (opioid μ receptor; [3]): 1.68 nM |
| Cc1cc(NC(=O)C2=C(O)[C@@H]3Oc4c(O)ccc5c4[C@@]34CCN(CC3CC3)[C@H](C5)[C@]4(O)C2)on1 [Compound I-138] | 55.8 |  | Ki (opioid μ receptor; [3]): 15.5 nM |
| CCCCNC(=O)C1=C(O)[C@@H]2Oc3c(O)ccc4c3[C@@]23CCN(CC2CC2)[C@H](C4)[C@]3(O)C1 [Compound I-3] |  | 8.76 |  |
| O=C(Nc1ccccc1)C1=C(O)[C@@H]2Oc3c(O)ccc4c3[C@@]23CCN(CC2CC2)[C@H](C4)[C@]3(O)C1 [Compound I-10] |  | 19.9 | Ki (opioid μ receptor): 4.05 nM |
| O=C(Nc1cccnc1)C1=C(O)[C@@H]2Oc3c(O)ccc4c3[C@@]23CCN(CC2CC2)[C@H](C4)[C@]3(O)C1 [Compound I-92] |  | 5.23 |  |
